Data reported in ChEMBL document CHEMBL3244136, “Structure-activity study of beta-adrenergic agents using the SIMCA method of pattern recognition” (J Med Chem, 1978).

Tests used:
[1] = system: Anura; experiment: Displacement of (-)-[3H]alprenolol from adrenergic receptor purified from frog erythrocytes
[2] = system: Anura; experiment: Displacement of (-)-[3H]alprenolol from adrenergic receptor purified from frog erythrocytes relative to isoproterenol

NC[C@H](O)c1ccc(O)c(O)c1
pKb [1]: < 3.7

CC(C)(Cc1ccc(O)cc1)NCC(O)c1ccc(O)c(O)c1 (centres undefined)
pKb [1]: 7.22 | Intrinsic activity [2]: 1.2

CC(N)C(O)c1cccc(O)c1 (centres undefined)
pKb [1]: 4.46

CC(CCc1ccc(O)cc1)NCCc1ccc(O)c(O)c1 (centres undefined)
pKb [1]: 4.62 | Intrinsic activity [2]: 0.25

CC(N)C(O)c1ccc(O)c(O)c1 (centres undefined)
pKb [1]: 4.55 | Intrinsic activity [2]: 0.87

CNCC(O)c1cccc(O)c1 (centres undefined)
pKb [1]: 4.28

NCCc1ccccc1
pKb [1]: 3.7

Oc1ccc(CCCNCCc2ccc(O)c(O)c2)cc1
pKb [1]: 4.64 | Intrinsic activity [2]: 0.17

CCNCC(O)c1cccc(O)c1 (centres undefined)
pKb [1]: 4.66

CC(NCCc1ccc(O)cc1)C(O)c1ccc(O)cc1 (centres undefined)
pKb [1]: 5.06

Oc1ccc(CCNCCc2ccc(O)c(O)c2)cc1
pKb [1]: 4.33 | Intrinsic activity [2]: 0.25

NCCc1ccc(O)c(O)c1
pKb [1]: < 3.7

CCC(NC1CCCC1)C(O)c1ccc(O)c(O)c1 (centres undefined)
pKb [1]: 4.41 | Intrinsic activity [2]: 0.64

CC(Cc1ccc(O)cc1)NCC(O)c1ccc(O)c(O)c1 (centres undefined)
pKb [1]: 6.17 | Intrinsic activity [2]: 1.1

NCCc1ccc(O)cc1
pKb [1]: < 3.7

CNC(C)C(O)c1ccccc1 (centres undefined)
pKb [1]: 5.04

CC(COc1ccccc1)NC(C)C(O)c1ccc(O)c(CS(=O)(=O)N(C)C)c1 (centres undefined)
pKb [1]: 7.12

CC(Cc1ccc2c(c1)OCO2)NCC(O)c1ccc(O)c(O)c1 (centres undefined)
pKb [1]: 6.17 | Intrinsic activity [2]: 1.1

CNC[C@H](O)c1ccc(O)c(O)c1
pKb [1]: 5.07 | Intrinsic activity [2]: 0.75

NCC(O)c1ccc(O)cc1 (centres undefined)
pKb [1]: < 3.7

COc1cccc(C(O)C(C)NC(C)C)c1 (centres undefined)
pKb [1]: 5.11

CC(CCc1ccccc1)NC(C)C(O)c1ccc(O)cc1 (centres undefined)
pKb [1]: 6.74

CNCC(O)c1cccc(NS(C)(=O)=O)c1 (centres undefined)
pKb [1]: 4.19

CC(C)(Cc1ccccc1)NCC(O)c1ccc(O)c(NS(C)(=O)=O)c1 (centres undefined)
pKb [1]: 7.85 | Intrinsic activity [2]: 0.27

CC(COc1ccccc1)NC(C)C(O)c1ccc(O)cc1 (centres undefined)
pKb [1]: 5.85

NC(CCO)C(O)c1ccccc1 (centres undefined)
pKb [1]: 4.29

CCC(N)C(O)c1ccc(O)c(O)c1 (centres undefined)
pKb [1]: 4.74 | Intrinsic activity [2]: 0.71

NCC(O)c1cccc(Cl)c1 (centres undefined)
pKb [1]: 4.08
